Experiments:
Assay type in all cases: in vivo
[1] = system: bulrush; assay: Test Example 1: weedkilling efficacy, preemergent weed treatment in the submerged state; B: bulrush; details: treatment dosage 252 g/ha
In short: (§1)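 Pots of alluvial soil were flooded to a 4 cm depth. Mixed weed seeds were sown and 2.5 leaf-stage rice seedlings transplanted. On sowing day, water-diluted emulsion was applied to the water surface (dose in g/ha). After 3 weeks at 25–30 °C, effects were rated.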

[2] = system: birds-eye speedwell; assay: Test Example 3: weedkilling efficacy through soil treatment; p: birds-eye speedwell; details: treatment dosage 315 g/ha
In short: (§2)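 Crop and weed responses were judged three weeks after a uniform surface spray of the water-diluted emulsion at the given g/ha rate. Seeds sat beneath about 1.5 cm of sterilized diluvial soil, and boxes stood in a greenhouse at 25 to 30° C.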

[3] = system: green foxtail; assay: Test Example 4: weedkilling efficacy by foliar treatment; E: green foxtail; details: treatment dosage 315 g/ha
Experimental: (§3) Testing of Weedkilling Efficacy by Foliar Treatment
(§4) Sterilized diluvial soil was introduced into 21 cm long, 13 cm wide, 7 cm deep plastic boxes, and seeds of crabgrass, green foxtail, barnyard grass, wild oat, black-grass, Italian ryegrass, common wind-grass, Indian mallow, redroot pigweed, fig-leafed goosefoot, chickweed, catchweed, birds-eye speedwell, corn, soybean, rice, wheat, beet and rapeseed were each spot-sown, and covered with about 1.5 cm of soil, then the plants were grown in a greenhouse at 25 to 30° C.
(§5) After they had grown for 14 days, emulsions of compounds of the present invention prepared according to compounding example 2 were diluted with water to give the specified dosages, and applied uniformly onto the stem and leaf parts with a small sprayer. 3 weeks after the pesticide treatment the effect on each type of plant was investigated on the basis of the assessment criteria of test example 1.
(§6) A: barnyard grass, B: bulrush, C: oval-leafed pondweed, D: crabgrass, E: green foxtail, F: barnyard grass, G: wild oat, H: black-grass, I: Italian ryegrass, J: common wind-grass, K: Indian mallow, L: redroot pigweed, M: fig-leafed goosefoot, N: chickweed, O: catchweed, p: birds-eye speedwell, a: transplanted rice, b: directly sown rice, c: corn, d: soybean, e: wheat, f: beet, g: rapeseed
(§7) Further, pesticide dosage (g/ha) indicates the concentration regulated such that treatment was with only the stated number of grams (g), when calculated per hectare (ha).

[4] = system: fig-leafed goosefoot; assay: Test Example 4: weedkilling efficacy by foliar treatment; M: fig-leafed goosefoot; details: treatment dosage 315 g/ha
Experimental: as §3, §4, §5, §6, §7

[5] = system: directly sown rice; assay: Test Example 3: soil treatment, effect on crop; b: directly sown rice; details: treatment dosage 315 g/ha
In short: as §2

[6] = system: chickweed; assay: Test Example 3: weedkilling efficacy through soil treatment; N: chickweed; details: treatment dosage 315 g/ha
In short: as §2

[7] = system: black-grass; assay: Test Example 4: weedkilling efficacy by foliar treatment; H: black-grass; details: treatment dosage 315 g/ha
Experimental: as §3, §4, §5, §6, §7

[8] = system: chickweed; assay: Test Example 4: weedkilling efficacy by foliar treatment; N: chickweed; details: treatment dosage 315 g/ha
Experimental: as §3, §4, §5, §6, §7

[9] = system: redroot pigweed; assay: Test Example 3: weedkilling efficacy through soil treatment; L: redroot pigweed; details: treatment dosage 315 g/ha
In short: as §2

[10] = system: corn; assay: Test Example 4: foliar treatment, effect on crop; c: corn; details: treatment dosage 315 g/ha
Experimental: as §3, §4, §5, §6, §7

[11] = system: redroot pigweed; assay: Test Example 4: weedkilling efficacy by foliar treatment; L: redroot pigweed; details: treatment dosage 315 g/ha
Experimental: as §3, §4, §5, §6, §7

[12] = system: oval-leafed pondweed; assay: Test Example 2: weedkilling efficacy, growth period weed treatment in the submerged state; C: oval-leafed pondweed; details: treatment dosage 252 g/ha
In short: (§8)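 Weeds treated at the 1-2 leaf stage by application of diluted emulsion onto floodwater (4 cm depth, alluvial soil) at specified g/ha. Grown in greenhouse at 25 to 30° C; herbicidal effect rated three weeks after treatment.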

[13] = system: crabgrass; assay: Test Example 4: weedkilling efficacy by foliar treatment; D: crabgrass; details: treatment dosage 315 g/ha
Experimental: as §3, §4, §5, §6, §7

[14] = system: barnyard grass; assay: Test Example 2: weedkilling efficacy, growth period weed treatment in the submerged state; A: barnyard grass; details: treatment dosage 252 g/ha
In short: as §8

[15] = system: Italian ryegrass; assay: Test Example 3: weedkilling efficacy through soil treatment; I: Italian ryegrass; details: treatment dosage 315 g/ha
In short: as §2

[16] = system: beet; assay: Test Example 4: foliar treatment, effect on crop; f: beet; details: treatment dosage 315 g/ha
Experimental: as §3, §4, §5, §6, §7

[17] = system: oval-leafed pondweed; assay: Test Example 1: weedkilling efficacy, preemergent weed treatment in the submerged state; C: oval-leafed pondweed; details: treatment dosage 252 g/ha
In short: as §1

[18] = system: black-grass; assay: Test Example 3: weedkilling efficacy through soil treatment; H: black-grass; details: treatment dosage 315 g/ha
In short: as §2

[19] = system: birds-eye speedwell; assay: Test Example 4: weedkilling efficacy by foliar treatment; p: birds-eye speedwell; details: treatment dosage 315 g/ha
Experimental: as §3, §4, §5, §6, §7

[20] = system: Indian mallow; assay: Test Example 4: weedkilling efficacy by foliar treatment; K: Indian mallow; details: treatment dosage 315 g/ha
Experimental: as §3, §4, §5, §6, §7

[21] = system: soybean; assay: Test Example 4: foliar treatment, effect on crop; d: soybean; details: treatment dosage 315 g/ha
Experimental: as §3, §4, §5, §6, §7

[22] = system: wheat; assay: Test Example 4: foliar treatment, effect on crop; e: wheat; details: treatment dosage 315 g/ha
Experimental: as §3, §4, §5, §6, §7

[23] = system: crabgrass; assay: Test Example 3: weedkilling efficacy through soil treatment; D: crabgrass; details: treatment dosage 315 g/ha
In short: as §2

[24] = system: soybean; assay: Test Example 3: soil treatment, effect on crop; d: soybean; details: treatment dosage 315 g/ha
In short: as §2

[25] = system: barnyard grass; assay: Test Example 1: weedkilling efficacy, preemergent weed treatment in the submerged state; A: barnyard grass; details: treatment dosage 252 g/ha
In short: as §1

[26] = system: Indian mallow; assay: Test Example 3: weedkilling efficacy through soil treatment; K: Indian mallow; details: treatment dosage 315 g/ha
In short: as §2

[27] = system: green foxtail; assay: Test Example 3: weedkilling efficacy through soil treatment; E: green foxtail; details: treatment dosage 315 g/ha
In short: as §2

[28] = system: fig-leafed goosefoot; assay: Test Example 3: weedkilling efficacy through soil treatment; M: fig-leafed goosefoot; details: treatment dosage 315 g/ha
In short: as §2

[29] = system: beet; assay: Test Example 3: soil treatment, effect on crop; f: beet; details: treatment dosage 315 g/ha
In short: as §2

[30] = system: catchweed; assay: Test Example 4: weedkilling efficacy by foliar treatment; O: catchweed; details: treatment dosage 315 g/ha
Experimental: as §3, §4, §5, §6, §7

[31] = system: transplanted rice; assay: Test Example 1: preemergent weed treatment in the submerged state, effect on crop; a: transplanted rice; details: treatment dosage 252 g/ha
In short: as §1

[32] = system: directly sown rice; assay: Test Example 4: foliar treatment, effect on crop; b: directly sown rice; details: treatment dosage 315 g/ha
Experimental: as §3, §4, §5, §6, §7

[33] = system: corn; assay: Test Example 3: soil treatment, effect on crop; c: corn; details: treatment dosage 315 g/ha
In short: as §2

[34] = system: bulrush; assay: Test Example 2: weedkilling efficacy, growth period weed treatment in the submerged state; B: bulrush; details: treatment dosage 252 g/ha
In short: as §8

[35] = system: Italian ryegrass; assay: Test Example 4: weedkilling efficacy by foliar treatment; I: Italian ryegrass; details: treatment dosage 315 g/ha
Experimental: as §3, §4, §5, §6, §7

[36] = system: wheat; assay: Test Example 3: soil treatment, effect on crop; e: wheat; details: treatment dosage 315 g/ha
In short: as §2

CC1=C(c2cccs2)C(=O)N(C(C)(C)C(=O)Nc2cccc(Cl)n2)CO1 [B-2-01]
B (bulrush) weedkilling efficacy grade [1]: 5 (weed kill ratio 90% or more, (practically complete withering))
P (birds-eye speedwell) weedkilling efficacy grade [2]: 5 (weed kill ratio 90% or more, (practically complete withering))
E (green foxtail) weedkilling efficacy grade [3]: 5 (weed kill ratio 90% or more, (practically complete withering))
M (fig-leafed goosefoot) weedkilling efficacy grade [4]: 4 (weed kill ratio 70% or more, less than 90%)
b (directly sown rice) effect on crop grade [5]: 5 (weed kill ratio 90% or more, (practically complete withering))
N (chickweed) weedkilling efficacy grade [6]: 3 (weed kill ratio 40% or more, less than 70%)
H (black-grass) weedkilling efficacy grade [7]: 5 (weed kill ratio 90% or more, (practically complete withering))
N (chickweed) weedkilling efficacy grade [8]: 4 (weed kill ratio 70% or more, less than 90%)
L (redroot pigweed) weedkilling efficacy grade [9]: 4 (weed kill ratio 70% or more, less than 90%)
c (corn) effect on crop grade [10]: 0 (weed kill ratio 5% or less (practically no effect))
L (redroot pigweed) weedkilling efficacy grade [11]: 5 (weed kill ratio 90% or more, (practically complete withering))
C (oval-leafed pondweed) weedkilling efficacy grade [12]: 5 (weed kill ratio 90% or more, (practically complete withering))
D (crabgrass) weedkilling efficacy grade [13]: 5 (weed kill ratio 90% or more, (practically complete withering))
A (barnyard grass) weedkilling efficacy grade [14]: 5 (weed kill ratio 90% or more, (practically complete withering))
I (Italian ryegrass) weedkilling efficacy grade [15]: 5 (weed kill ratio 90% or more, (practically complete withering))
f (beet) effect on crop grade [16]: 4 (weed kill ratio 70% or more, less than 90%)
C (oval-leafed pondweed) weedkilling efficacy grade [17]: 5 (weed kill ratio 90% or more, (practically complete withering))
H (black-grass) weedkilling efficacy grade [18]: 5 (weed kill ratio 90% or more, (practically complete withering))
P (birds-eye speedwell) weedkilling efficacy grade [19]: 0 (weed kill ratio 5% or less (practically no effect))
K (Indian mallow) weedkilling efficacy grade [20]: 3 (weed kill ratio 40% or more, less than 70%)
d (soybean) effect on crop grade [21]: 5 (weed kill ratio 90% or more, (practically complete withering))
e (wheat) effect on crop grade [22]: 1 (weed kill ratio 5% or more, less than 20%)
D (crabgrass) weedkilling efficacy grade [23]: 5 (weed kill ratio 90% or more, (practically complete withering))
d (soybean) effect on crop grade [24]: 0 (weed kill ratio 5% or less (practically no effect))
A (barnyard grass) weedkilling efficacy grade [25]: 5 (weed kill ratio 90% or more, (practically complete withering))
K (Indian mallow) weedkilling efficacy grade [26]: 3 (weed kill ratio 40% or more, less than 70%)
E (green foxtail) weedkilling efficacy grade [27]: 5 (weed kill ratio 90% or more, (practically complete withering))
M (fig-leafed goosefoot) weedkilling efficacy grade [28]: 4 (weed kill ratio 70% or more, less than 90%)
f (beet) effect on crop grade [29]: 4 (weed kill ratio 70% or more, less than 90%)
O (catchweed) weedkilling efficacy grade [30]: 4 (weed kill ratio 70% or more, less than 90%)
a (transplanted rice) effect on crop grade [31]: 2 (weed kill ratio 20% or more, less than 40%)
b (directly sown rice) effect on crop grade [32]: 5 (weed kill ratio 90% or more, (practically complete withering))
c (corn) effect on crop grade [33]: 0 (weed kill ratio 5% or less (practically no effect))
B (bulrush) weedkilling efficacy grade [34]: 5 (weed kill ratio 90% or more, (practically complete withering))
I (Italian ryegrass) weedkilling efficacy grade [35]: 5 (weed kill ratio 90% or more, (practically complete withering))

CC1=C(c2ccc(Cl)s2)C(=O)N(C(C)(C)C(=O)Nc2cccc(Cl)n2)CO1 [B-2-02]
B (bulrush) weedkilling efficacy grade [1]: 5 (weed kill ratio 90% or more, (practically complete withering))
P (birds-eye speedwell) weedkilling efficacy grade [2]: 2 (weed kill ratio 20% or more, less than 40%)
E (green foxtail) weedkilling efficacy grade [3]: 3 (weed kill ratio 40% or more, less than 70%)
M (fig-leafed goosefoot) weedkilling efficacy grade [4]: 3 (weed kill ratio 40% or more, less than 70%)
b (directly sown rice) effect on crop grade [5]: 2 (weed kill ratio 20% or more, less than 40%)
N (chickweed) weedkilling efficacy grade [6]: 3 (weed kill ratio 40% or more, less than 70%)
H (black-grass) weedkilling efficacy grade [7]: 4 (weed kill ratio 70% or more, less than 90%)
N (chickweed) weedkilling efficacy grade [8]: 0 (weed kill ratio 5% or less (practically no effect))
L (redroot pigweed) weedkilling efficacy grade [9]: 3 (weed kill ratio 40% or more, less than 70%)
c (corn) effect on crop grade [10]: 0 (weed kill ratio 5% or less (practically no effect))
L (redroot pigweed) weedkilling efficacy grade [11]: 4 (weed kill ratio 70% or more, less than 90%)
C (oval-leafed pondweed) weedkilling efficacy grade [12]: 5 (weed kill ratio 90% or more, (practically complete withering))
D (crabgrass) weedkilling efficacy grade [13]: 4 (weed kill ratio 70% or more, less than 90%)
A (barnyard grass) weedkilling efficacy grade [14]: 5 (weed kill ratio 90% or more, (practically complete withering))
I (Italian ryegrass) weedkilling efficacy grade [15]: 5 (weed kill ratio 90% or more, (practically complete withering))
f (beet) effect on crop grade [16]: 3 (weed kill ratio 40% or more, less than 70%)
C (oval-leafed pondweed) weedkilling efficacy grade [17]: 5 (weed kill ratio 90% or more, (practically complete withering))
H (black-grass) weedkilling efficacy grade [18]: 5 (weed kill ratio 90% or more, (practically complete withering))
P (birds-eye speedwell) weedkilling efficacy grade [19]: 1 (weed kill ratio 5% or more, less than 20%)
K (Indian mallow) weedkilling efficacy grade [20]: 0 (weed kill ratio 5% or less (practically no effect))
d (soybean) effect on crop grade [21]: 0 (weed kill ratio 5% or less (practically no effect))
e (wheat) effect on crop grade [22]: 0 (weed kill ratio 5% or less (practically no effect))
D (crabgrass) weedkilling efficacy grade [23]: 5 (weed kill ratio 90% or more, (practically complete withering))
d (soybean) effect on crop grade [24]: 0 (weed kill ratio 5% or less (practically no effect))
e (wheat) effect on crop grade [36]: 3 (weed kill ratio 40% or more, less than 70%)
A (barnyard grass) weedkilling efficacy grade [25]: 5 (weed kill ratio 90% or more, (practically complete withering))
K (Indian mallow) weedkilling efficacy grade [26]: 3 (weed kill ratio 40% or more, less than 70%)
E (green foxtail) weedkilling efficacy grade [27]: 3 (weed kill ratio 40% or more, less than 70%)
M (fig-leafed goosefoot) weedkilling efficacy grade [28]: 0 (weed kill ratio 5% or less (practically no effect))
f (beet) effect on crop grade [29]: 0 (weed kill ratio 5% or less (practically no effect))
O (catchweed) weedkilling efficacy grade [30]: 0 (weed kill ratio 5% or less (practically no effect))
a (transplanted rice) effect on crop grade [31]: 0 (weed kill ratio 5% or less (practically no effect))
b (directly sown rice) effect on crop grade [32]: 4 (weed kill ratio 70% or more, less than 90%)
c (corn) effect on crop grade [33]: 0 (weed kill ratio 5% or less (practically no effect))
B (bulrush) weedkilling efficacy grade [34]: 5 (weed kill ratio 90% or more, (practically complete withering))
I (Italian ryegrass) weedkilling efficacy grade [35]: 3 (weed kill ratio 40% or more, less than 70%)
